Data on 3 compounds can be found in article PMC9823088, “The oral selective estrogen receptor degrader GDC-0810 (ARN-810) in postmenopausal women with hormone receptor-positive HER2-negative (HR + /HER2 −) advanced/metastatic breast cancer” (Breast Cancer Research and Treatment, 2022).

Series [1] in a line: Plasma pharmacokinetics of GDC-0810 and glucuronide metabolites. It is filed as in vivo, human. Particulars: steady state, 600-mg QD, non-fasted condition. On the procedure: Blood samples were collected for pharmacokinetic assessments. Tumor assessments were performed at screening and every 8 weeks from cycle 1, day 1 (C1D1). Radiographic assessment of objective tumor response or disease progression was based on Response Evaluation Criteria in Solid Tumors (RECIST v1.1). Transvaginal ultrasound scans were performed to monitor endometrial thickness at screening, at every 6 months from C1D1, and at the end of treatment. Imaging with [^18F]-fluoroestradiol positron emission tomography (FES-PET) was performed to quantify ER expression in tumors and to assess for pharmacodynamic response. Further assessment details are provided in Supplementary Methods.
CYP2B6 and CYP2C enzymes. […]
Blood samples were collected for pharmacokinetic assessment on lead-in day −7 and cycle 2 day 1 (C2D1) at predose (0 hour) and postdose (0.5, 1, 1.5, 2, 3, 4, 6, 8, and 24 hours), (plus at 48 hours postdose for day−7). Full plasma pharmacokinetic profiles were obtained for GDC-0810 and its glucuronide metabolites (acyl-glucuronide and N-glucuronide) using a validated liquid chromatography/ tandem mass spectrometry method, and analyzed using non-compartmental methods for all patients in the dose escalation cohorts.
Tumor assessments were performed at screening and every 8 weeks from cycle-1, day-1 […]

The subject of the next series is MBC. Also noted: method as in PMID 34906954. Particulars: cited from earlier work.
On the set-up of series [2]: method as in PMID 32919527. The settings on record: cited from earlier work.
The next series has as its system ER. Also noted: method as in PMID 25380844. Particulars: patients receiving fulvestrant; cited from earlier work.

Consider `CC/C(=C(/c1ccc(/C=C/C(=O)O[C@@H]2O[C@H](C(=O)O)[C@@H](O)[C@H](O)[C@H]2O)cc1)c1ccc2[nH]ncc2c1)c1ccc(F)cc1Cl` [GDC-0810-acyl-glucuronide], for which the “average plasma exposure of metabolite relative to parent GDC-0810” value in series [1] was approximately 10%.
As to `CCNCCc1ccc(CN(CC)c2cc(OC)ccc2[C@@H]2CCc3cc(O)ccc3C2)cc1` [elacestrant], the PFS in the series on MBC (patients with MBC who received endocrine + CDK4/6 previously) is given as 2.8 months. Also, in the series with MBC (patients with tumors harboring ESR1 mutations), the “median PFS” value was 3.8 months.
Turning to `C[C@]12CC[C@@H]3c4ccc(O)cc4C[C@@H](CCCCCCCCC[S+]([O-])CCCC(F)(F)C(F)(F)F)[C@H]3[C@@H]1CC[C@@H]2O` (some centres unmarked) [fulvestrant], in series [2], the solubility entry was “poor solubility”. Besides, the “patients with residual ER activity by FES-PET” value in the series with ER is reported as 38%.
